The record followed here is US10920265B2, “Compounds and methods for detection of enzymes that remove methyl succinyl groups from epsilon-amino lysine moieties” (Enzo Life Sciences, Inc., priority 2011, dated 2021).

Structures are written as SMILES.

The test deals with T1, bovine pancreatic trypsin (Bos taurus, UniProt P00760).
T1 construct: purchased ENZO Life Sciences BML-KI105 or BML-KI176; host or cells: bovine pancreas
T1 sequence (P00760 24-246): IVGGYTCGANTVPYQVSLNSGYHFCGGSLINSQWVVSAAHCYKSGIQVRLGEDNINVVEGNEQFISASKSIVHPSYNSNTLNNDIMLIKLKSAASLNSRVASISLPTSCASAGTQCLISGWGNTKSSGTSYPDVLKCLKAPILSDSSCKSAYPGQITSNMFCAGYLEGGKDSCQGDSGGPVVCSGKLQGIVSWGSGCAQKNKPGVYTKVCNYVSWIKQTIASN
As to the kind of experiment: Trypsin release of AMC from lysyl-AMC compounds. The settings on record: 1 μM compound, trypsin 2 mg/ml, room temperature. The format is biochemical. How it is done:
FIG. 2 is a graph showing that trypsin treatment releases fluorescent AMC from Ac-Lys-AMC but not Ac-Lys(Succinyl)-AMC. Samples (100 μl) of 1 μM Ac-Lys-AMC and 1 μM Ac-Lys(Succinyl)-AMC in a buffered solution (50 mM Tris/HCl, pH 8.0, 137 mM NaCl, 2.7 mM KCl, 1 mM MgCl2) were treated with bovine pancreatic trypsin (2 mg/ml) for the indicated times at room temperature. Samples were in the wells of a 96-well, ½-area white microplate and fluorescence was measured at 1 min. intervals at the excitation and emission wavelengths for free AMC (Excitation: 360 nm; Emission: 460 nm) in a Synergy 2 microplate reading fluorimeter (BioTek), Gain 40. The data points at 0 min. represent the fluorescence of equivalent 1 μM Ac-Lys(Succ.)-AMC and 1 μM Ac-Lys-AMC samples in the absence of trypsin.
As noted in the Background of the Invention section above, the protease trypsin catalyzes the hydrolytic cleavage of amide bonds on the carboxyl side of unmodified lysine residues. Hydrolytic cleavage of lysyl amide bonds with AMC or rhodamine 110 (dye components of Compounds 1 and 2, respectively) releases the free amino forms of the dyes. This elicits an upward shift of the dye's fluorescence emission peak wavelength (bathochromic shift), for example to 460 nm for AMC or 530 nm for rhodamine 110. If succinylation of the ε-amino function of the lysine moieties in compounds such as 1 and 2 renders the amide bond between the carbonyl of lysine and the amino of dye groups such as AMC or rhodamine resistant to trypsin cleavage then, upon desuccinylation, the lysine/dye amide bond would become cleavable by trypsin. Note that removal of a single succinyl group from 2, followed by cleavage of the desuccinylated lysine would yield a compound with a single free amino function, Ac-K(Succ.)-R110. Monoamides of rhodamine 110 also have increased fluorescence emission at 530 nm relative to 2, although they are less fluorescent than rhodamine 110 itself (Liu et al., 1999). Thus, monitoring the fluorescence at the peak wavelength of the amino form of the dye would allow the desuccinylation reaction to be quantified. A schematic for such an assay is depicted for Compound 1 and SIRT5 in FIG. 1. Trypsin treatment (2 mg/ml) elicits an immediate increase in the fluorescence of a solution of Ac-Lys-AMC (Compound 6—FIG. 1) at the excitation and emission wavelengths of free AMC (Ex. 360 nm; Em. 460 nm), with maximum fluorescence achieved in 2 min. or less and ˜⅔ of that maximum occurring in 1 min. (FIG. 2).

As to `CC(=O)N[C@@H](CCCCNC(=O)CCC(=O)O)C(=O)Nc1ccc2c(C)cc(=O)oc2c1` [Compound 1, N—(N^α-acetyl-L-Lysine(N^ε-succinyl))-AMC], the “Trypsin cleavage / change in fluorescence” value was “complete resistance to the trypsin cleavage”. Further, the “Trypsin cleavage / change in fluorescence” value (listed as Ac-Lys(Succ.)-AMC) is reported as “no change in fluorescence”.
